# Measurements as given in paper PMC9855386, “Obtaining a Monoclonal Antibody against a Novel Prometryn-Like Hapten and Characterization of Its Selectivity for Triazine Herbicides” (Biosensors, 2022).
# Tested on: 7D4 mAb
# Test: ic-ELISA optimal combination of coated antigen and antibody (Table S3)
# Format: binding, mouse
# Conditions: prometryn 1000 ng/mL
# Description: The ic-ELISA method was used to screen the best-performing fusion mouse sera. They were used to establish the standard curve of antibodies by detecting the supernatant of positive cells. The buffer required for ic-ELISA was the same as previously reported. The specific steps of the operation are as follows: (1) The coated antigen was added to the microplate by diluting it with the required coating solutions (CBS, pH 9.6, 0.05 mol/L). Each well contained 100 µL, which was incubated at 37 °C for three h before being washed three times with washing buffer (PBST, PBS containing 0.1% Tween-20). (2) With sample dilution buffer (PBSTG, PBST containing 0.1% gelatin), the standard prometryn sample and the antiserum/antibody from mice were diluted to the required concentration. The microplate was incubated for 30 min at 37 °C with 50 µL of diluted antiserum or antibody and standard samples of various concentrations. PBST was used three times to wash the dishes. (3) Then, 100 µL of PBSTG-diluent IgG HRP (labeled goat anti-mouse IgG with HRP) was added to each well. After 30 min at 37 °C, the plate was cleaned three times with PBST. (4) Each well was incubated for 15 min in the dark at 25 °C with 100 µL of TMB color developing solution. To stop the reaction, 50 µL of the hydrochloric acid solution was added to each well. The absorbance at OD450 nm was measured with a TECAN Infinite M200 PRO microplate reader from Männedorf, Switzerland.
# The ic-ELISA method was used to determine the ideal antibody and antigen mix. The coating antigen and antibody concentration used in the experiment was 1 mg/mL. The dilution multiples of the coating were 1 × 10^3, 2 × 10^3, 4 × 10^3, and 8 × 10^3. The prometryn standard was 1000 ng/mL. The best concentration combination of antigen and antibody was selected to establish the standard curve of the antibody. Prometryn standards were diluted to 1000, 500, 250, 125, 62.5, 31.25, 15.625, 7.8125, 3.90625, and 0 ng/mL, with PBSTG for subsequent ic-ELISA experiments. The standard curve was determined by ic-ELISA. […] Each measured OD value in the curve is the average of three independent repeats. The 7D4 mAb’s inhibition rate was well linearly correlated with the prometryn concentration. […] The 7D4 mAb type was identified as IgG1 using a mouse antibody isotyping kit from Sigma®, St. Louis, MO, USA.
compound,measurement,setting,value
"CSc1nc(NC(C)C)nc(NC(C)C)n1 [Prometryn, 2-methylthio-4,6-di(isopropylamino)-1,3,5-triazobenzene]",IR (inhibition rate),"dilution of immunogen 1×103, dilution of serum 1.6×104",94%
same,IR (inhibition rate),"dilution of immunogen 1×103, dilution of serum 2×103",97%
same,IR (inhibition rate),"dilution of immunogen 1×103, dilution of serum 3.2×104",92%
same,IR (inhibition rate),"dilution of immunogen 1×103, dilution of serum 4×103",98%
same,IR (inhibition rate),"dilution of immunogen 1×103, dilution of serum 8×103",97%
same,IR (inhibition rate),"dilution of immunogen 2×103, dilution of serum 1.6×104",92%
same,IR (inhibition rate),"dilution of immunogen 2×103, dilution of serum 2×103",98%
same,IR (inhibition rate),"dilution of immunogen 2×103, dilution of serum 3.2×104",85%
same,IR (inhibition rate),"dilution of immunogen 2×103, dilution of serum 4×103",97%
same,IR (inhibition rate),"dilution of immunogen 2×103, dilution of serum 8×103",96%
same,IR (inhibition rate),"dilution of immunogen 4×103, dilution of serum 1.6×104",81%
same,IR (inhibition rate),"dilution of immunogen 4×103, dilution of serum 2×103",97%
same,IR (inhibition rate),"dilution of immunogen 4×103, dilution of serum 3.2×104",71%
same,IR (inhibition rate),"dilution of immunogen 4×103, dilution of serum 4×103",95%
same,IR (inhibition rate),"dilution of immunogen 4×103, dilution of serum 8×103",90%
same,IR (inhibition rate),"dilution of immunogen 8×103, dilution of serum 1.6×104",67%
same,IR (inhibition rate),"dilution of immunogen 8×103, dilution of serum 2×103",93%
same,IR (inhibition rate),"dilution of immunogen 8×103, dilution of serum 3.2×104",55%
same,IR (inhibition rate),"dilution of immunogen 8×103, dilution of serum 4×103",90%
same,IR (inhibition rate),"dilution of immunogen 8×103, dilution of serum 8×103",82%
